Literature values in article PMC5548178 (Pharmacotherapy, 2016).
Where two headings read alike, the source gives them in different places.

How the values were obtained:
[1] = reported variability in healthy volunteers
[2] = single-dose gemfibrozil 600 mg after 2 weeks of lopinavir 400 mg–ritonavir 100 mg twice daily; healthy volunteers

SMILES | AUC (mean ± SD) [1] [ng·h/mL] | Substrate for the efflux transporter P-glycoprotein (P-glycoprotein (P-gp)) | Reduction in gemfibrozil exposure (AUC0-∞) [2] [%] | Mean change in triglyceride levels (triglyceride levels; HIV-infected patients receiving NNRTI-based cART) | Mean change in triglyceride levels (triglyceride levels; non–HIV-infected controls)
CC(C)(Oc1ccc(C(=O)c2ccc(Cl)cc2)cc1)C(=O)O [fenofibric acid] | 92000 ± 26000 | not a substrate |  |  | 
Cc1ccc(C)c(OCCCC(C)(C)C(=O)O)c1 [gemfibrozil] |  |  | 41 | –60.3% | –59.3%
